Data taken from patent US6610675B1 (priority 1980, dated 2003).

Columns and labels:
Type in all cases: in vivo, rat
[1] = system: blank cotton pellet granuloma; assay: Blank cotton pellet granuloma assay (intravenous administration); conditions: 3 days
Protocol: A further test was undertaken to determine the thymolytic activity of a representative species of the invention as compared to betamethasone 17-valerate. In this test, the drugs were administered intravenously to rats, while using a blank cotton pellet granuloma assay. Male Sprague-Dawley rats, each weighing about 185 grams (166-196 grams), were used. Two cotton pellets, each weighing 30 mg and containing no test compounds, were sterilized and implanted sub-cutaneously into the back of each test animal. This day was considered day 0 of implantation. Test compounds suspended in 0.8% polysorbate 80 were administered intravenously once daily for 3 consecutive days beginning with day 1. On day 5, the animals were sacrificed and the two pellets, with their respective granulomas, were removed, dried overnight in an oven at 50° C. and weighed (dry granuloma weight). The thymi and final body weights were also recorded.
In the foregoing tests, there was determined the deactivation of the representative species of the present soft steroids administered intravenously to rats. […] The test compounds were administered intravenously to rats to check the test compounds also for systemic anti-inflammatory activity as compared to betamethasone 17-valerate. The test compounds were found lower in the inhibition of granulation tissue formation and also in the thymus involution activity than betamethasone 17-valerate. From the results of the tests, it is presumed that the compounds which will not be readily subjected to metabolism (deactivation) have a systemic anti-inflammatory activity, as is the case with betamethasone 17-valerate.

[2] = system: granulation tissue formation caused by implantation of cotton pellets; assay: Granuloma formation test (local cotton pellet granuloma assay)
Protocol: The test compound was dissolved in acetone and aliquots of varying concentrations were injected into cotton pellets. The pellets were dried and then one pellet was implanted beneath the skin of each test rat. Six days later, the animals were sacrificed and the granulation tissue (granuloma) which formed in and around the implanted pellet was removed, dried and weighed. In addition, the thymi and adrenals were removed and weighed.

[3] = system: ear swelling induced by croton oil; assay: Ear edema test; conditions: 1 mg/kg topical
Protocol: The test animals were Sprague/Dawley rats weighing approximately 150 grams each. In treatment groups, selected amounts of the test compound were dissolved in acetone containing 5% croton oil and 50 microliters of the solution were applied to the inner surface of the right ear of the rats. A control group was identically treated with vehicle only, i.e. 5% croton oil in acetone. Six hours after croton oil challenge, a constant region of each ear was removed by dissection under anesthesia. Then, 48 hours after steroid treatment, the animals were sacrificed and the thymi and adrenals were removed and weighed. The test results showing the inhibitory effect of topically applied steroids on the ear swelling induced by croton oil are summarized in Table II below.

thymus weight in rats = assay: Thymus inhibition testing (subcutaneous administration); conditions: for Body weight gain / Thymus / Thymus Inhibition: Table VII, three days
Procedure, shortened: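 Male Sprague-Dawley rats were dosed systemically. On the fifth day, 48 hours after the last treatment, animals were sacrificed and thymus weights recorded.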

[4] = Table X, betamethasone 17-valerate = 1

Compound: CCCCC(=O)O[C@]1(C(=O)CO)[C@@H](C)C[C@H]2[C@@H]3CCC4=CC(=O)C=C[C@]4(C)[C@@]3(F)[C@@H](O)C[C@@]21C [Betamethasone 17-valerate, reference compound]
- Body wt. gain ([1]; 0.1 mg/kg/day i.v.): 14.4 ± 1.6 g
- Dry granuloma wt. ([1]; 0.1 mg/kg/day i.v.): 49.3 ± 3.9 mg
- Dry granuloma wt. Inhibition ([1]; 0.1 mg/kg/day i.v.): 21.4%
- Thymus wt. ([1]; 0.1 mg/kg/day i.v.): 305 ± 14 mg
- Thymus wt. Decrease ([1]; 0.1 mg/kg/day i.v.): 27.7%
- Body wt. gain ([1]; 0.3 mg/kg/day i.v.): 12.2 ± 1.1 g
- Dry granuloma wt. ([1]; 0.3 mg/kg/day i.v.): 44.4 ± 2.8 mg
- Dry granuloma wt. Inhibition ([1]; 0.3 mg/kg/day i.v.): 29.2%
- Thymus wt. ([1]; 0.3 mg/kg/day i.v.): 288 ± 27 mg
- Thymus wt. Decrease ([1]; 0.3 mg/kg/day i.v.): 31.8%
- Body wt. gain ([1]; 1 mg/kg/day i.v.): 12.9 ± 1.1 g
- Dry granuloma wt. ([1]; 1 mg/kg/day i.v.): 46.1 ± 4.3 mg
- Dry granuloma wt. Inhibition ([1]; 1 mg/kg/day i.v.): 26.5%
- Thymus wt. ([1]; 1 mg/kg/day i.v.): 233 ± 15 mg
- Thymus wt. Decrease ([1]; 1 mg/kg/day i.v.): 44.8%
- Body wt. gain ([1]; 3 mg/kg/day i.v.): 13.0 ± 2.5 g
- Dry granuloma wt. ([1]; 3 mg/kg/day i.v.): 47.3 ± 2.7 mg
- Dry granuloma wt. Inhibition ([1]; 3 mg/kg/day i.v.): 24.6%
- Thymus wt. ([1]; 3 mg/kg/day i.v.): 167 ± 22 mg
- Thymus wt. Decrease ([1]; 3 mg/kg/day i.v.): 60.4%
- Body wt. gain ([2]; Table III, 1 mg/pellet): 16.6 ± 1.9 g
- Granulation tissue Dry wt. ([2]; Table III, 1 mg/pellet): 35.4 ± 7.3 mg/100 g body wt.
- Granulation tissue Inhibition ([2]; Table III, 1 mg/pellet): 19.0%
- Relative organ weight Adrenals ([2]; Table III, 1 mg/pellet): 15.5 ± 1.3 mg/100 g body wt.
- Relative organ weight Adrenals (Decrease %) ([2]; Table III, 1 mg/pellet): (34.6) %
- Relative organ weight Thymus ([2]; Table III, 1 mg/pellet): 47 ± 2 mg/100 g body wt.
- Relative organ weight Thymus (Decrease %) ([2]; Table III, 1 mg/pellet): (85.6) %
- Body wt. gain ([2]; Table III, 3 mg/pellet): 14.9 ± 1.7 g
- Granulation tissue Dry wt. ([2]; Table III, 3 mg/pellet): 31.6 ± 2.1 mg/100 g body wt.
- Granulation tissue Inhibition ([2]; Table III, 3 mg/pellet): 27.7%
- Relative organ weight Adrenals ([2]; Table III, 3 mg/pellet): 13.6 ± 0.9 mg/100 g body wt.
- Relative organ weight Adrenals (Decrease %) ([2]; Table III, 3 mg/pellet): (42.6) %
- Relative organ weight Thymus ([2]; Table III, 3 mg/pellet): 38 ± 3 mg/100 g body wt.
- Relative organ weight Thymus (Decrease %) ([2]; Table III, 3 mg/pellet): (88.3) %
- Body wt. gain ([2]; Table III, 10 mg/pellet): 17.0 ± 2.1 g
- Granulation tissue Dry wt. ([2]; Table III, 10 mg/pellet): 40.7 ± 2.6 mg/100 g body wt.
- Granulation tissue Inhibition ([2]; Table III, 10 mg/pellet): 6.9%
- Relative organ weight Adrenals ([2]; Table III, 10 mg/pellet): 12.6 ± 0.9 mg/100 g body wt.
- Relative organ weight Adrenals (Decrease %) ([2]; Table III, 10 mg/pellet): (46.8) %
- Relative organ weight Thymus ([2]; Table III, 10 mg/pellet): 43 ± 4 mg/100 g body wt.
- Relative organ weight Thymus (Decrease %) ([2]; Table III, 10 mg/pellet): (86.8) %
- Body wt. gain ([2]; Table IV, 100 μg/pellet): 24.9 ± 1.9 g
- Granulation tissue Dry wt. ([2]; Table IV, 100 μg/pellet): 41.1 ± 2.7 mg
- Granulation tissue Dry wt. Inhibition ([2]; Table IV, 100 μg/pellet): 49.4%
- Granulation tissue Wet wt. ([2]; Table IV, 100 μg/pellet): 400 ± 19 mg
- Granulation tissue Wet wt. Inhibition ([2]; Table IV, 100 μg/pellet): 29.3%
- Thymus wt. ([2]; Table IV, 100 μg/pellet): 364 ± 24 mg
- Thymus wt. (Decrease %) ([2]; Table IV, 100 μg/pellet): (18.2) %
- Body wt. gain ([2]; Table IV, 300 μg/pellet): 22.3 ± 1.2 g
- Granulation tissue Dry wt. ([2]; Table IV, 300 μg/pellet): 33.3 ± 3.6 mg
- Granulation tissue Dry wt. Inhibition ([2]; Table IV, 300 μg/pellet): 59.0%
- Granulation tissue Wet wt. ([2]; Table IV, 300 μg/pellet): 347 ± 15 mg
- Granulation tissue Wet wt. Inhibition ([2]; Table IV, 300 μg/pellet): 38.7%
- Thymus wt. ([2]; Table IV, 300 μg/pellet): 264 ± 29 mg
- Thymus wt. (Decrease %) ([2]; Table IV, 300 μg/pellet): (40.7) %
- Body wt. gain ([2]; Table IV, 1000 μg/pellet): 5.3 ± 1.0 g
- Granulation tissue Dry wt. ([2]; Table IV, 1000 μg/pellet): 38.1 ± 4.8 mg
- Granulation tissue Dry wt. Inhibition ([2]; Table IV, 1000 μg/pellet): 53.1%
- Granulation tissue Wet wt. ([2]; Table IV, 1000 μg/pellet): 363 ± 28 mg
- Granulation tissue Wet wt. Inhibition ([2]; Table IV, 1000 μg/pellet): 35.9%
- Thymus wt. ([2]; Table IV, 1000 μg/pellet): 77 ± 5 mg
- Thymus wt. (Decrease %) ([2]; Table IV, 1000 μg/pellet): (82.7) %
- Body wt. gain ([2]; Table IV, 3000 μg/pellet): 6.6 ± 1.4 g
- Granulation tissue Dry wt. ([2]; Table IV, 3000 μg/pellet): 43.0 ± 4.1 mg
- Granulation tissue Dry wt. Inhibition ([2]; Table IV, 3000 μg/pellet): 47.0%
- Granulation tissue Wet wt. ([2]; Table IV, 3000 μg/pellet): 374 ± 15 mg
- Granulation tissue Wet wt. Inhibition ([2]; Table IV, 3000 μg/pellet): 33.9%
- Thymus wt. ([2]; Table IV, 3000 μg/pellet): 63 ± 3 mg
- Thymus wt. (Decrease %) ([2]; Table IV, 3000 μg/pellet): (85.8) %
- Body wt. gain ([2]; Table V-a, 10 μg/pellet): 31.8 ± 1.6 g
- Granulation tissue Dry wt. ([2]; Table V-a, 10 μg/pellet): 38.5 ± 6.2 mg
- Granulation tissue Dry wt. Inhibition ([2]; Table V-a, 10 μg/pellet): 51.9%
- Granulation tissue Wet wt. ([2]; Table V-a, 10 μg/pellet): 375 ± 19 mg
- Granulation tissue Wet wt. Inhibition ([2]; Table V-a, 10 μg/pellet): 28.6%
- Thymus wt. ([2]; Table V-a, 10 μg/pellet): 479 ± 25 mg
- Thymus wt. (Decrease %) ([2]; Table V-a, 10 μg/pellet): (3.2) %
- Body wt. gain ([2]; Table V-a, 30 μg/pellet): 30.8 ± 3.0 g
- Granulation tissue Dry wt. ([2]; Table V-a, 30 μg/pellet): 46.2 ± 7.4 mg
- Granulation tissue Dry wt. Inhibition ([2]; Table V-a, 30 μg/pellet): 42.3%
- Granulation tissue Wet wt. ([2]; Table V-a, 30 μg/pellet): 412 ± 42 mg
- Granulation tissue Wet wt. Inhibition ([2]; Table V-a, 30 μg/pellet): 21.5%
- Thymus wt. ([2]; Table V-a, 30 μg/pellet): 484 ± 23 mg
- Thymus wt. (Decrease %) ([2]; Table V-a, 30 μg/pellet): (2.2) %
- Body wt. gain ([2]; Table V-a, 100 μg/pellet): 25.7 ± 1.2 g
- Granulation tissue Dry wt. ([2]; Table V-a, 100 μg/pellet): 41.0 ± 4.2 mg
- Granulation tissue Dry wt. Inhibition ([2]; Table V-a, 100 μg/pellet): 48.8%
- Granulation tissue Wet wt. ([2]; Table V-a, 100 μg/pellet): 419 ± 20 mg
- Granulation tissue Wet wt. Inhibition ([2]; Table V-a, 100 μg/pellet): 20.2%
- Thymus wt. ([2]; Table V-a, 100 μg/pellet): 378 ± 30 mg
- Thymus wt. (Decrease %) ([2]; Table V-a, 100 μg/pellet): (23.6) %
- ED50 ([2]; Table XII, anti-inflammatory effect in cotton pellet granuloma): 100 μg/pellet
- Ear Weight, % Increase ([3]; 6 hr): 10.9 ± 6.3 %
- Ear Weight, % Inhibition ([3]; 6 hr): 82.2%
- Ear Weight, Inflamed Ear ([3]; 6 hr): 55.4 ± 1.2 mg
- Ear Weight, Untreated Ear ([3]; 6 hr): 50.4 ± 2.0 mg
- Relative organ weight Adrenals ([3]; 48 hours): 18.9 ± 1.9 mg/100 g body wt.
- Relative organ weight Thymus ([3]; 48 hours): 267 ± 19 mg/100 g body wt.
- Body weight gain (thymus weight in rats; 0.1 mg/kg/day s.c.): 15.5 ± 0.9 g
- Thymus (thymus weight in rats; 0.1 mg/kg/day s.c.): 362 ± 16 mg
- Thymus Inhibition (thymus weight in rats; 0.1 mg/kg/day s.c.): 23.1%
- Body weight gain (thymus weight in rats; 0.3 mg/kg/day s.c.): 12.4 ± 0.9 g
- Thymus (thymus weight in rats; 0.3 mg/kg/day s.c.): 276 ± 11 mg
- Thymus Inhibition (thymus weight in rats; 0.3 mg/kg/day s.c.): 41.4%
- Body weight gain (thymus weight in rats; 1 mg/kg/day s.c.): 13.0 ± 1.1 g
- Thymus (thymus weight in rats; 1 mg/kg/day s.c.): 200 ± 14 mg
- Thymus Inhibition (thymus weight in rats; 1 mg/kg/day s.c.): 57.5%
- Body weight gain (thymus weight in rats; 3 mg/kg/day s.c.): 9.9 ± 1.3 g
- Thymus (thymus weight in rats; 3 mg/kg/day s.c.): 119 ± 7 mg
- Thymus Inhibition (thymus weight in rats; 3 mg/kg/day s.c.): 74.7%
- Relative Potency (TED40) (thymus weight in rats; [4]): 1
- Relative Potency (TED50) (thymus weight in rats; [4]): 1
- TED40 (thymus weight in rats; Table X, dose required to achieve 40% inhibition of thymi weight, subcutaneous): 0.30 mg
- TED50 (thymus weight in rats; Table X, dose required to achieve 50% inhibition of thymi weight, subcutaneous): 0.58 mg
- Relative Potency (TED40) (thymus weight in rats; Table XII, hydrocortisone 17-butyrate = 1): 4
- TED40 (thymus weight in rats; Table XII, thymus inhibition effect, subcutaneously): 0.3 mg/kg
